According to PubChem BioAssay AID2060350 (Molecular Pharmacology Branch, DTP, NCI, 2025):

Tested on: PDC 521955-158-R6-J3 spheroids, viability
Assay: Anticancer human tumor 521955-158-R6-J3-PDC patient-derived pancreatic carcinoma cell line growth inhibition [TAK]
Conditions: spheroids with HUVEC and MSC; for IC50: curve of first compound; for viability, T/C: stronger effect = lower value
Excerpt: Combinatorial screen of targeted agents with TAK-243 and ipatasertib in multi-cell type tumor spheroids
A high-throughput screen of multi-cell type tumor spheroids was designed to identify active combinations of targeted small molecules and TAK-243 or ipatasertib. Complex spheroids include a stromal component modeled by human endothelial cells (HUVEC) and fibroblasts modeled by human mesenchymal stem cells (MSCs). The concentration ranges selected for each drug and investigational agent were based upon clinically achievable concentrations if the clinical Cmax of the agent was known.
Compounds. The drugs and investigational agents: TAK-243 (785004), ipatasertib (767898), everolimus (733504), selumetinib (741078), bortezomib (756655), trametinib (758246), ixazomib (758254), vemurafenib (761431), dabrafenib (764134), sapanisertib (764658), alpelisib (765974), and copanlisib (816437), were obtained from the National Cancer Institute (NCI) Developmental Therapeutics Program Chemical Repository. The FDA-approved anticancer drug set is available from the NCI Developmental Therapeutics Program. […] The stock solutions were prepared in dimethyl sulfoxide (DMSO, Sigma-Aldrich, St. Louis, MO, cat. D2650) at 800-fold the tested concentration and stored at -70 degrees C prior to their use. All drugs and investigational agents were tested over a range starting from a high concentration at or near the clinical Cmax and decreasing in half-log increments. If the clinical Cmax for an agent had not been determined, the highest concentration tested was 10 microM.
NCI60 Cell Culture. NCI60 cell lines were obtained from the NCI Developmental Therapeutics Program Tumor Repository. For each lot of cells, the Repository performed Applied Biosystems AmpFLSTR Identifiler testing with PCR amplification to confirm consistency with the published Identifier STR profile for each cell line. Cells were kept in continuous culture for no more than 20 passages. The optimal seeding densities for each of the cell lines at each time point assessed were determined prior to performing the concentration response studies. Briefly, the NCI60 human tumor lines were grown as monolayers in RPMI 1640 medium supplemented with 10% FBS and 2 mmol/L L-glutamine.
An additional 2 lines were from the NCI60 cell line panel including melanomas, MALME-3M and SK-MEL-2. Pooled donor human umbilical vein endothelial cells (HUVEC, Lonza, cat. CC-2519) and human mesenchymal stem cells (hMSC, Lonza, cat. PT-2501) were purchased from Lonza (Walkersville, MD).
PDMR cell lines were grown in complete medium (DC medium): Dulbecco's modified Eagle's medium (DMEM)/F12 supplemented with 5% fetal bovine serum (FBS), 2 mM L-glutamine, 100 U/mL penicillin and 100 µg/ml streptomycin, 0.4 µg/ml hydrocortisone, 10 ng/ml epidermal growth factor (EGF) recombinant human protein, 24 µg/mL adenine, and 0.1 mg/mL primocin. During culture from frozen stock vials, PDMR cells were cultured in the same medium containing 10 µM Y-27632 (see Table 3). The PDCs were cultured in complete DMEM/F12 media without 10 microM Y-27632 dihydrochloride for at least two passages prior to the screen. The pooled donor HUVEC and hMSC were cultured in endothelial cell growth medium 2 (PromoCell, Heidelberg, Germany, cat. C-22011) and mesenchymal stem cell growth medium 2 (PromoCell, cat. C-28009), respectively. For all experiments, HUVEC and hMSC were used at passages </=5.
For the pre-screen, cell seeding densities were determined from a titration spanning the range from 5,000 to 313 cells per well. The mct-spheroids including 60% malignant cells, 25% HUVEC and 15% MSC dispensed as a mixture into U-bottom Ultra-Low Attachment 384-well plates (Corning, NY)
High-throughput Drug Combination Screening.
Prior to their inoculation into 384-well plates, malignant cells, HUVEC, and hMSC were removed from T flasks using TrypLE express (Thermo Fisher Scientific, cat. 12605036) and harvested by centrifugation for 5 min at 233 x g. […]
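Note: spheroids exposed to drugs for 7 days before readout.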
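Throughout, for viability, T/C: 100% = DMSO vehicle control viability.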

In the case of `CC(=O)Nc1cccc(-n2c(=O)n(C3CC3)c(=O)c3c(Nc4ccc(I)cc4F)n(C)c(=O)c(C)c32)c1` + CC(C)NCC(C(=O)N1CCN(c2ncnc3c2C(C)CC3O)CC1)c1ccc(Cl)cc1, the IC50 (second compound 0.3 µM) is reported as 7.12 nM, the IC50 (second compound 0.949 µM) is reported as 2.58 nM and the IC50 (second compound 3 µM) is reported as 1.82 nM. The IC50 (second compound 9.49 µM) was 2.3 nM, the IC50 (second compound 30 µM) was 1.64 nM and the viability, T/C (second compound 0.3 µM, first compound 94.9 pM) was 79.6%. It also gave a viability, T/C (second compound 0.3 µM, first compound 0.0003 µM) of 75.7%, a viability, T/C (second compound 0.3 µM, first compound 0.000949 µM) of 67.9% and a viability, T/C (second compound 0.3 µM, first compound 0.003 µM) of 58.8%. The viability, T/C (second compound 0.3 µM, first compound 0.00949 µM) was 46.8%, the viability, T/C (second compound 0.3 µM, first compound 0.03 µM) was 35.6% and the viability, T/C (second compound 0.949 µM, first compound 94.9 pM) was 85.6%. The viability, T/C (second compound 0.949 µM, first compound 0.0003 µM) was 73.7%, the viability, T/C (second compound 0.949 µM, first compound 0.000949 µM) was 58.5% and the viability, T/C (second compound 0.949 µM, first compound 0.003 µM) was 49%. The viability, T/C (second compound 0.949 µM, first compound 0.00949 µM) was 38.3%, the viability, T/C (second compound 0.949 µM, first compound 0.03 µM) was 25.2% and the viability, T/C (second compound 3 µM, first compound 94.9 pM) was 78.9%. The viability, T/C (second compound 3 µM, first compound 0.0003 µM) was 62.1%, the viability, T/C (second compound 3 µM, first compound 0.000949 µM) was 54.4% and the viability, T/C (second compound 3 µM, first compound 0.003 µM) was 49%. The viability, T/C (second compound 3 µM, first compound 0.00949 µM) was 37.6%, the viability, T/C (second compound 3 µM, first compound 0.03 µM) was 22.2% and the viability, T/C (second compound 9.49 µM, first compound 94.9 pM) was 77.9%. It also gave a viability, T/C (second compound 9.49 µM, first compound 0.0003 µM) of 62.8%, a viability, T/C (second compound 9.49 µM, first compound 0.000949 µM) of 53.1% and a viability, T/C (second compound 9.49 µM, first compound 0.003 µM) of 53.4%. For the same molecule, the viability, T/C (second compound 9.49 µM, first compound 0.00949 µM) was 37.4%, the viability, T/C (second compound 9.49 µM, first compound 0.03 µM) was 15.2% and the viability, T/C (second compound 30 µM, first compound 94.9 pM) was 71.9%. For the same molecule, the viability, T/C (second compound 30 µM, first compound 0.0003 µM) was 59.6%, the viability, T/C (second compound 30 µM, first compound 0.000949 µM) was 55.8% and the viability, T/C (second compound 30 µM, first compound 0.003 µM) was 47.8%. The viability, T/C (second compound 30 µM, first compound 0.00949 µM) was 28.5% and the viability, T/C (second compound 30 µM, first compound 0.03 µM) was 16.1%.
With `CC(C)CC(NC(=O)C(Cc1ccccc1)NC(=O)c1cnccn1)B(O)O` (stereo not given) + CC(C)NCC(C(=O)N1CCN(c2ncnc3c2C(C)CC3O)CC1)c1ccc(Cl)cc1 the IC50 (second compound 0.3 µM) was 5.96 nM, the IC50 (second compound 0.949 µM) was 5.82 nM and the IC50 (second compound 3 µM) was 5.71 nM. The IC50 (second compound 9.49 µM) was 6.02 nM, the IC50 (second compound 30 µM) was 5.65 nM and the viability, T/C (second compound 0.3 µM, first compound 31.6 pM) was 94.4%. It also gave a viability, T/C (second compound 0.3 µM, first compound 0.0001 µM) of 95.4%, a viability, T/C (second compound 0.3 µM, first compound 0.000316 µM) of 94.5% and a viability, T/C (second compound 0.3 µM, first compound 0.001 µM) of 96.1%. For the same molecule, the viability, T/C (second compound 0.3 µM, first compound 0.00316 µM) was 111%, the viability, T/C (second compound 0.3 µM, first compound 0.01 µM) was 10.6% and the viability, T/C (second compound 0.949 µM, first compound 31.6 pM) was 94.3%. It also gave a viability, T/C (second compound 0.949 µM, first compound 0.0001 µM) of 84.2%, a viability, T/C (second compound 0.949 µM, first compound 0.000316 µM) of 93.5% and a viability, T/C (second compound 0.949 µM, first compound 0.001 µM) of 103%. It also gave a viability, T/C (second compound 0.949 µM, first compound 0.00316 µM) of 109%, a viability, T/C (second compound 0.949 µM, first compound 0.01 µM) of 8.36% and a viability, T/C (second compound 3 µM, first compound 31.6 pM) of 90.6%. The viability, T/C (second compound 3 µM, first compound 0.0001 µM) was 90.5%, the viability, T/C (second compound 3 µM, first compound 0.000316 µM) was 93% and the viability, T/C (second compound 3 µM, first compound 0.001 µM) was 93.7%. The viability, T/C (second compound 3 µM, first compound 0.00316 µM) was 113%, the viability, T/C (second compound 3 µM, first compound 0.01 µM) was 6.03% and the viability, T/C (second compound 9.49 µM, first compound 31.6 pM) was 94.3%. For the same molecule, the viability, T/C (second compound 9.49 µM, first compound 0.0001 µM) was 89%, the viability, T/C (second compound 9.49 µM, first compound 0.000316 µM) was 97.6% and the viability, T/C (second compound 9.49 µM, first compound 0.001 µM) was 96.1%. The viability, T/C (second compound 9.49 µM, first compound 0.00316 µM) was 104%, the viability, T/C (second compound 9.49 µM, first compound 0.01 µM) was 13.5% and the viability, T/C (second compound 30 µM, first compound 31.6 pM) was 93.8%. The viability, T/C (second compound 30 µM, first compound 0.0001 µM) was 92.1%, the viability, T/C (second compound 30 µM, first compound 0.000316 µM) was 89.9% and the viability, T/C (second compound 30 µM, first compound 0.001 µM) was 98.5%. For the same molecule, the viability, T/C (second compound 30 µM, first compound 0.00316 µM) was 98.4% and the viability, T/C (second compound 30 µM, first compound 0.01 µM) was 6.17%.
